Assay results from patent publication US20060211697A1, “2-(2 Or 4-substituted aryloxy)-phenol derivatives as antibacterial agents” (priority 2004, published 2006).
Converted amounts (≈) assume the structure as drawn.

Key:
[1] = test system: H. influenzae 43095; assay: MIC, broth dilution method, H. influenzae; type: cell-based; settings: Haemophilus influenzae, 43095; Gram-negative bacteria; in vitro, broth dilution; read-out: MIC H. influenzae 43095
Description: (§1) Minimum Inhibition Concentration (MIC), Broth Dilution Method:
(§2) The compounds of the present invention were tested against an assortment of Gram positive and Gram negative organisms using standard microtitration techniques well known to those skilled in the art. Cultures of bacteria are initially brought up from the freezer by streaking a loopful onto agar plates under the appropriate conditions. For instance bacterial stocks are streaked onto chocolate agar and then incubated for 18 hours at 35-37° C. in a 5% CO2 incubator. Five to ten colonies are picked from the chocolate agar plate for subculture to Brain-Heart infusion (BHI) broth, Mueller Hinton broth, or BHI containing 4% serum and incubated under the appropriate conditions. The ability of the test compound to act as an antimicrobial is determined by the ability to inhibit bacterial growth in vitro. The optical density of the culture of organisms in the presence of an active compound is compared to the optical density of the same organism untreated. The activity of the compounds is described as either negative or the lowest concentration inhibiting growth (Minimum Inhibitory Concentration [MIC]).

[2] = test system: S. aureus 29213; assay: MIC, broth dilution method, S. aureus; type: cell-based; settings: Staphylococcus aureus, 29213; Gram-positive bacteria; in vitro, broth dilution; read-out: MIC S. aureus 29213
Description: as §1, §2

[3] = test system: E. coli 43888; assay: MIC, broth dilution method, E. coli; type: cell-based; settings: Escherichia coli, 43888; Gram-negative bacteria; in vitro, broth dilution; read-out: MIC E. coli 43888
Description: as §1, §2

[4] = test system: S. pneumoniae 11733; assay: MIC, broth dilution method, S. pneumoniae; type: cell-based; settings: Streptococcus pneumoniae, 11733; Gram-positive bacteria; in vitro, broth dilution; read-out: MIC S. pneumoniae 11733
Description: as §1, §2

SMILES	MIC [1] [µg/mL]	MIC [2] [µg/mL]	melting point	MIC [3] [µg/mL]	MIC [4] [µg/mL]
Oc1ccccc1Oc1ccc(-c2ccsc2)cc1O [Example 1, 2-(2-Hydroxy-phenoxy)-5-(thiophen-3-yl)-phenol]	2 (≈ 7.03 µM)	4 (≈ 14.1 µM)	114 to 116 °C	15.7 (≈ 55.2 µM)	2 (≈ 7.03 µM)
Cc1ccc(Oc2ccc(-c3cccs3)cc2O)c(O)c1 [Example 3, 2-(2-Hydroxy-4-methyl-phenoxy)-5-(thiophen-2-yl)-phenol]	4 (≈ 13.4 µM)	4 (≈ 13.4 µM)	91 to 92 °C	15.7 (≈ 52.6 µM)	1 (≈ 3.35 µM)
Cc1ccc(Oc2ccc(C3NCCS3)cc2)c(O)c1 (stereo not shown) [Example 5, 5-Methyl-2-[4-(thiazolidin-2-yl)-phenoxy]-phenol]	0.125 (≈ 0.435 µM)	0.5 (≈ 1.74 µM)	197 to 199 °C	4 (≈ 13.9 µM)	4 (≈ 13.9 µM)
Cc1ccc(Oc2ccc(C3NC(C(=O)O)CS3)cc2)c(O)c1 (stereo not shown) [Example 7, 2-[4-(2-Hydroxy-4-methyl-phenoxy)-phenyl]-thiazolidine-4-carboxylic acid]	1 (≈ 3.02 µM)	0.25 (≈ 0.754 µM)	172 to 174 °C (dec.)	4 (≈ 12.1 µM)	1 (≈ 3.02 µM)
Cc1ccc(Oc2ccc(C3NC(C(=O)O)CCS3)cc2)c(O)c1 (stereo not shown) [Example 8, 2-[4-(2-Hydroxy-4-methyl-phenoxy)-phenyl]-[1, 3]thiazinane-4-carboxylic acid]	0.5 (≈ 1.45 µM)	0.5 (≈ 1.45 µM)	140 to 145 °C (dec.)	4 (≈ 11.6 µM)	4 (≈ 11.6 µM)
Cc1ccc(Oc2ccc(C3NC(C(=O)O)CS3)cc2C#N)c(O)c1 (stereo not shown) [Example 9, 2-[3-Cyano-4-(2-hydroxy-4-methyl-phenoxy)-phenyl]-thiazolidine-4-carboxylic acid]	4 (≈ 11.2 µM)	2 (≈ 5.61 µM)	150 to 152 °C	4 (≈ 11.2 µM)	4 (≈ 11.2 µM)
Cc1ccc(Oc2ccc(C3NC(C(=O)O)CCS3)cc2C#N)c(O)c1 (stereo not shown) [Example 10, 2-[3-Cyano-4-(2-hydroxy-4-methyl-phenoxy)-phenyl]-[1,3]thiazinane-4-carboxylic acid]	2 (≈ 5.4 µM)	2 (≈ 5.4 µM)	147 to 150 °C (dec.)	4 (≈ 10.8 µM)	2 (≈ 5.4 µM)
Cc1ccc(Oc2ccc(-c3nnn[nH]3)cc2)c(O)c1 [Example 13, 5-Methyl-2-[4-(1H-tetrazol-5-yl)-phenoxy]-phenol and 5-methyl-2-[4-(2H-tetrazol-5-yl)-phenoxy]-phenol]	2 (≈ 7.46 µM)	7.9 (≈ 29.4 µM)	173 to 175 °C	62.5 (≈ 233 µM)	7.9 (≈ 29.4 µM)
Cc1ccc(Oc2ccccc2-c2nnn[nH]2)c(O)c1 [Example 14, 5-Methyl-2-[2-(1H-tetrazol-5-yl)-phenoxy]-phenol and 5-methyl-2-[2-(2H-tetrazol-5-yl)-phenoxy]-phenol]	0.125 (≈ 0.466 µM)	0.002 (≈ 0.00746 µM)	205 to 207 °C	0.125 (≈ 0.466 µM)	2 (≈ 7.46 µM)
Nc1nnc(-c2ccccc2Oc2ccc(F)cc2O)s1 [Example 22, 2-[2-(5-Amino-[1,3,4]thiadiazol-2-yl)-phenoxy]-5-fluoro-phenol]	> 25	12.5 (≈ 41.2 µM)	250 to 255 °C (dec.)	> 25	25 (≈ 82.4 µM)
Cc1ccc(Oc2ccc(-c3nnc(N)s3)cc2)c(O)c1 [Example 23, 2-[4-(5-Amino-[1,3,4]thiadiazol-2-yl)-phenoxy]-5-methyl-phenol]	> 25	1.6 (≈ 5.34 µM)	240 to 243 °C (dec.)	25 (≈ 83.5 µM)	12.5 (≈ 41.8 µM)
